US20010046668A1, “Fluorescence polarization method for determining protease activity” (G.D. Searle & Co., priority 1994, published 2001)
No end group written: not given here.

Target: HCMV protease (also known as assemblin) encoded by UL80 (Human cytomegalovirus, UniProt P16753)
Test: Assemblin fluorescence polarization assay: hydrolysis of biotin/DTAF peptide substrate, quenched with avidin
Type: biochemical, human cytomegalovirus strain AD169
Conditions: for Polarization: protease 100 nM, substrate 5 μM final, room temperature, avidin added
Procedure: The construction also encoded six additional histidine residues at the amino terminus of the protease. These additional histidine residues provided an affinity ligand by which it was purified using nickel-nitriloacetic acid-agarose (Qiagen).
The assay was performed in a buffer consisting 10 mM Phosphate buffer, pH 7.4, 20% glycerol, 150 mM sodium acetate, 0.1% CHAPS, 0.1 mM EDTA, 0.05% BSA, 2 mM NaSO3. The pH of the buffer was adjusted to 7.4 before the addition of glycerol.
The purified protease was stored as a 10 μM stock solution in 50/50 (V/V) glycerol/water, 50 μL per vial, and held at −20° C. A positive displacement pipette was used to make the 50 μL aliquots. This stock was diluted with assay buffer to 32 nM. A 100 μL aliquot of this solution was used in the enzyme reaction. A 150 μM substrate stock solution was prepared in assay buffer and stored at 4° C. in the dark. A 20 μM dilute assay stock was prepared by dilution of the 150 μM storage stock. A 5 mg/mL avidin stock solution was made by dissolving avidin (Molecular Probes) in assay buffer and stored in the refrigerator at 4° C. Roundbottom 96-well plate microtiter plates (Black MicroFluor, Dynatec) were pre-blocked with 1.0% BSA in PBS, pH 7.4, and stored at 4° C. The plates were rinsed and dried before use.
An HCMV protease (also known as assemblin) encoded by UL80, in buffer (100 nM) was added in multiple wells to rinsed and dried, pre-blocked microtiter plate. No precautions are taken to stabilize the temperature. Substrate (5 μM final concentration) was added, mixed 5 times, and incubated at room temperature. Avidin (35 μL of 5 mg/mL) was added to one group of wells after 10 minutes, to a second group of wells after 20 minutes and to the remaining wells after thirty minutes, mixed 5 times, and the polarization of the resulting mixture was measured on the FPM2 fluorescence polarimeter. The complete hydrolysis to Ser-Ala-Leu-Arg-Lys(DTAF)-NH2 gave a Pmin value of 32.1 mP.

Chain of HCMV protease (also known as assemblin) encoded by UL80 (P16753 1-256): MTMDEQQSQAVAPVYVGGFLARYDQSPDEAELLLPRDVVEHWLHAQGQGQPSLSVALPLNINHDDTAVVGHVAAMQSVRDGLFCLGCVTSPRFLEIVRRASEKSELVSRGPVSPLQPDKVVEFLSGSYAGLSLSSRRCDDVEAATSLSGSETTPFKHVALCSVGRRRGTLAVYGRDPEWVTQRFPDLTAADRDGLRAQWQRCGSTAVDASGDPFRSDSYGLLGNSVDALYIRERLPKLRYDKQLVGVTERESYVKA

Substance	ΔP = Pmax − P(t) (time 0 min) [mP]	Polarization (time 0 min) [mP]	ΔP = Pmax − P(t) (time 10 min) [mP]	Polarization (time 10 min) [mP]	ΔP = Pmax − P(t) (time 20 min) [mP]	Polarization (time 20 min) [mP]	ΔP = Pmax − P(t) (time 30 min) [mP]	Polarization (time 30 min) [mP]	Pmin value (polarization) (complete hydrolysis of the substrate to the cleaved fluorescent fragment) [mP]
Biotin-γ-Abu-Gly-Val-Val-Asn-Ala-Ser-Ala-Arg-Leu-Lys(DTAF)-NH2 [Example 1]	0.0	214.1	47.0	167.2	77.2	136.9	99.9	114.2	–
Ser-Ala-Leu-Arg-Lys(DTAF)-NH2 (SALRK(DTAF)-NH2) [cleaved fluorescent fragment from complete hydrolysis of the assemblin substrate]	–	–	–	–	–	–	–	–	32.1
